US20110195910A1, “USE OF TOCOTRIENOL COMPOSITION FOR THE PREVENTION OF CANCER” (DAVOS LIFE SCIENCE PTE. LTD., priority 2008, published 2011)

Key:
DU145 cells = assay: Western blotting of CD44, DU145 cells; type: cell-based; conditions: doses with minimum effect on viability
Protocol: (§1) 5.1.5 Western blotting was carried out as described above under 1.1.5. The membrane was incubated with primary antibodies directed against CD133 (Miltenyi Biotec, Auburn, Calif.), Bcl-2, PARP, cleaved caspase 3, 7, 9 (Cell Signaling, Technology Inc, Beverly, Mass.), CD44 and β-actin (Santa Cruz Biotechnology, Santa Cruz, Calif.). After washing with TBS-T, the membrane was incubated with secondary antibody against either mouse or rabbit IgG and the signals were visualized using ECL plus western blotting system (Amersham, Piscataway, N.J.).

[1] = γ-T3 level in tumors and organs by HPLC; type: in vivo, BALB/c athymic nude mice; conditions: 50 mg/kg/day γ-T3 for 10 days
Protocol: Nude mice bearing similar tumor sizes of about 100 mm^3 (after 2 weeks inoculation) were selected and randomly divided into three groups (n=5 per group); control (DMSO as vehicle), γ-T3 (50 mg/kg/d) and combination treatment of γ-T3 and Docetaxel (50 mg of γ-T3/kg/d and 7.5 mg of Docetaxel/kg/wk). The mice were weighed as daily basic and the tumors were measured using a Digital Carbon Fiber Caliper (Fisher scientific, Pittsburgh, Pa.) at the same time. The tumor volume was calculated as 4/3*π*(mean diameter/2)^3. The mice were dosed 5 times a week for 2 weeks. After 10 days of treatment, the mice were euthanized by CO2 inhalation. Blood samples were collected through cardiac bleeding using 25-gauge needle. Blood samples were incubated at room temperature for 30 min, followed by centrifugation at 4400 rpm, 4° C. for 30 min. Serum, as the supernatant, was separated from plasma and stored at −80° C. Tumor, liver, kidney, spleen, lung and heart were harvested. Part of the tumors was fixed in 10% neutral buffered formalin solution. […]
4.1.7 Determination of γ-Tocotrienol level by high performance liquid chromatography—A normal phase of HPLC method was performed as a modification of procedures known in the art. […] The absorbance of γ-T3 was monitored with a […] set at an excitation wavelength of 290 nm and emission wavelength of 360 nm.

PC-3 cells = assay: Low-dose viability (MTT) and apoptotic markers, PC-3 cells; type: cell-based; conditions: 2.5 and 5 μg/ml
Protocol: 5.1.4 Cell viability assay—Cell viability upon γ-T3 treatment was measured by 3-(4,5-Dimethyl thiazol-2-yl)-2,5-diphenyl tetrazolium bromide (MTT) assay. Briefly, cells were seeded on 96 well-plates and treated with different concentrations of γ-T3 for the indicated time point. At the end of the treatment, MTT (Sigma, St. Louis, Mo.) was added into each well and incubated for 4 hrs at RT. DMSO was then added into each well to dissolve the formazan crystals. The plate was allowed to incubate for a further 5 min at RT and the optical density (OD) was measured at a wavelength of 570 nm on a Labsystem multiskan microplate reader (Merck Eurolab, Dietikon, Schweiz). All individual wells were set in triplicates. The percentage of cell viability was presented as OD ratio between the treated and untreated cells at indicated concentrations.
as §1

MDA-MB-231 cells = assay: Matrigel-invasion assay, MDA-MB-231 cells; type: cell-based, human; conditions: MDA-MB-231, 24 hrs
Protocol: 1.1.4 Matrigel-invasion assay—Matrigel-invasion assay was performed according to a previously published method with modifications. Briefly, cells were pre-incubated in a serum-free RPMI 1640 medium with or without γ-T3 isomers for 24 hrs. Cells (2.5×10^5) resuspended in 500 μl of serum-free RPMI 1640 containing 0.1% bovine serum albumin (BSA) were then added to the upper chamber of a 8 μm pore size insert (Millipore, Bedford, Mass.) manually coated with Matrigel (0.5 mg/ml) (BD Bioscience, Bedford, Mass.). Five hundred μl of invasion buffer containing fibronectin (10 μg/ml) and RPMI 1640 supplemented with 10% FCS were added in the lower chamber as a chemo-attractant. Cells were incubated at 37° C. for 24 hrs in 5% CO2 humidified conditions. At the end of incubation period, inserts were stained with Diff-Quick staining solution (Fischer Scientific). Non-invaded cells on the inside of the insert were scraped off with a cotton swab. Cell invasions were then examined by a phase-contrast microscope. The invaded cells were extracted using extraction buffer (Millipore, Bedford, Mass.) and the cell number was estimated based on absorbance at 595 nm.
3.1.7 Flow cytometry was carried out as described above under item 1.1.3. Matrigel-invasion assay was carried out as described above under item 1.1.4. Western blotting was carried out as described above under item 1.1.5.

In the case of `CC(C)=CCC/C(C)=C/CC/C(C)=C/CCC1(C)CCc2cc(O)c(C)c(C)c2O1` (centres unmarked) [γ-T3, 7,8-dimethyltocotrienol], the CD44 expression (DU145 cells) is reported as “suppression of CD44 expression”, the “tumor γ-T3 amount relative to other internal organs” value [1] is reported as “at least two-fold” and the “γ-T3 concentration within the tumors” value [1] is reported as 0.15±0.03 mg of γ-T3 per gram of wet weight. The “induction of apoptosis (viability assay and apoptotic markers)” value (PC-3 cells) was “failed to detect a drastic induction of apoptosis” and the “invasion capability compared to untreated control” value (MDA-MB-231 cells) was “at least 2 -time lower”.
